Laboratory results as given in patent publication US5296591A, “Trifluoromethylketone derivatives, processes for preparation thereof and use thereof” (Fujisawa Pharmaceutical Co., Ltd., priority 1990, dated 1994).
pIC50: −log10 of the molar value. Read-outs that look alike come from different tables or passages of the source. One block for each compound: values may come before it.

Key:
[1] = target: T1, human sputum elastase (HSE) (Homo sapiens, UniProt P08246); test: Protease inhibition assay (in vitro), human sputum elastase; assay type: biochemical; conditions: substrate methoxysuccinyl-(Ala)2-Pro-Val-p-nitroanilide, 30 min, room temperature, pH 7.5
T1 construct: HSE was obtained from Elastin Products Company Inc., Mo., U.S.A; purchased Elastin Products Company Inc; host or cells: human sputum (from the enzyme's name)
T1 sequence (P08246 30-267): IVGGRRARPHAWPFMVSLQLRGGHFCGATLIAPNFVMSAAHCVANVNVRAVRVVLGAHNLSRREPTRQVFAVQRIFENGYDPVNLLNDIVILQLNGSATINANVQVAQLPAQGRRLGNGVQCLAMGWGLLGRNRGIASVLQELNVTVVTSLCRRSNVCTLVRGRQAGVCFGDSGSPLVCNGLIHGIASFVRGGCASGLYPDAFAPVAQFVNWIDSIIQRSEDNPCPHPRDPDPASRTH
Protocol: (§1) A buffer used throughout the assay was 0.1M HEPES (4-(2-hydroxyethyl)-1-piperazineethanesulfonic acid) containing 0.5M NaCl, pH 7.5. Twenty-five microliters of 2 mM methoxysuccinyl-(Ala)2 -Pro-Val-p-nitroanilide (100 mM of dimethyl sulfoxide solution were diluted in the buffer) and 50 μl of sample (10 μl of sample in organic solvent was diluted 5-fold in the buffer) were mixed in wells of 96 well-microliter plate. An absorbance of the mixture in wavelength at 415 nm was measured by a microplate reader (Corona Electric Co., Ibaraki, Japan). After the measurement, 25 μl of 6 μg/ml human sputum elastase (HSE) was added and the mixture was allowed to stand for 30 minutes at room temperature. Then, the absorbance at 415 nm was measured. Percent inhibition by drug was determined by 100×(1-"r" inhibitor present/"r" inhibitor absent), where "r" is absorbance after 30 minutes incubation minus absorbance before enzyme addition. Effect of inhibitors against porcine pancreas elastase (Type IV, 5 μg/ml final) was assayed similarly using N-succinyl-(Ala)3 -p-nitroanilide. HSE was obtained from Elastin Products Company Inc., Mo., U.S.A. All other substrates and protease were purchased from Sigma Chemicals Co.

[2] = target: T2, porcine pancreas elastase (Type IV) (Sus scrofa, UniProt P00772); test: Protease inhibition assay (in vitro), porcine pancreas elastase; assay type: biochemical; conditions: substrate N-succinyl-(Ala)3-p-nitroanilide, enzyme 5 μg/ml final
T2 construct: purchased Sigma Chemicals Co; host or cells: porcine pancreas (from the enzyme's name)
T2 sequence (P00772 27-266): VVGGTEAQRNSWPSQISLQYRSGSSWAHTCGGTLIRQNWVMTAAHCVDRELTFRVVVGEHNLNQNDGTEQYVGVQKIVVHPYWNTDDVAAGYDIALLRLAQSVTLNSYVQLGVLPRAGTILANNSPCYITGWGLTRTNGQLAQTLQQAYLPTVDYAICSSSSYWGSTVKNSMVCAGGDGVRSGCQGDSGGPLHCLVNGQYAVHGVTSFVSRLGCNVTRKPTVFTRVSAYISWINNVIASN
Protocol: as §1

[3] = system: human sputum elastase-induced lung hemorrhage in hamsters; test: Elastase-induced pulmonary damage (lung hemorrhage) in hamsters; assay type: in vivo, hamster; conditions: 5 min predose; for Hemorrhage (OD541 nm): BAL hemoglobin 3 h after elastase; for ED50 elastase-induced lung hemorrhage: intratracheal
Protocol: Hamsters under pentobarbital anesthesia were used. Saline or saline-containing human sputum elastase was instilled intratracheally via a small incision in the ventral neck region using 1-ml syringe with a 27-gauge needle. After 3 hours, animals were sacrificed by CO2 asphyxiation, each animal's trachea was reexposed. The lungs were then laveged using a 2.5-ml aliquot of saline and then withdrawing the saline, yielding a final volume of approximately 1.5 ml bronchoalveolar lavage (BAC) fluid from each animal.
The cells of BAL fluid were collected by centrifugation and were then diluted with distilled water to disrupt, and the hemoglobin contents determined spectrophotometrically at 541 nm.
Test drugs were dissolved in saline or methyl cellulose, and instilled intratracheally in the same manner as used to instill elastase, at 5 minutes before instillation of elastase.

[4] = system: human sputum elastase induced paw edema in C57BL mice; test: Human sputum elastase induced paw edema in mice; assay type: in vivo, mouse; conditions: for Thickness of footpad: 15 min before HSE 20 μg/site, 2 h after HSE
Protocol: Male C57BL mice at the age of 7-8 weeks were obtained from Japan Clear Inc,.
Human sputum elastase (HSE) was purchased from Elastin Products Company, Inc,. The test drug was administered subcutaneously, and 15 minutes later, HSE was injected into the right hind footpad at the dosage of 20 μg/site, and saline into the left hind footpad as the control. After 2 hours of HSE injection, the paw edema was measured with the dial thickness gage, and the difference of the thickness between right and left hind footpads was calculated.

[5] = system: PPE-induced emphysema in golden Syrian hamsters; test: Experimentally (porcine pancreatic elastase) induced emphysema in hamsters; assay type: in vivo, hamster; conditions: for Cst (quasi static lung compliance) / VC (vital capacity): 3 weeks after PPE
Protocol: Male golden Syrian hamsters, weighing approximately 120 g, were obtained from Japan SLC Inc,.
Porcine pancreatic elastase (PPE) was purchased from Elastin Products Company, Inc,. Dialferin was purchased from Japan Roche Inc,.
Hamsters were anesthetized intraperitoneally with Pentobarbital. The compound of Example 19 was dissolved in saline. Both prior art compounds A and B were suspended in 0.5% methyl cellulose. The drugs were instilled intratracheally through the oral cavity, 5 minutes before 100 μg/site of PPE in 0.2 ml of saline instillation. Three weeks after PPE instillation, the hamsters were anesthetized with Pentobarbital. Respiratory mechanics were studied in supine hamsters using a whole body, constant-volume, variable pressure plethysmograph to measue volume. A water-filled esophageal catheter was used to estimate pleural pressure. Quasi-static deflation pressure-volume (P-V) curves were obtained by intraperitoneally administered Dialferin to suppress spontaneous breathing inflating the lungs to a transpulmonary pressure (PL) of 30 cm H2 O, permitting slow deflation to a PL of 0 cm H2 O and gently aspirating to a PL of -20 cm H2 O . Quasi-static lung compliance (Cst) was defined as the slope of the steep portion of the deflation P-V curve in the mid-volume range. Vital capacity was defined as the difference in lung volume between TLC25 (volume at PL=25 cm H2 O) and RV-20 (volume at PL=-20 cm H2 O).

[6] = 1 μg/site intratracheal 5 min before PPE 100 μg/site
[7] = 10 μg/site intratracheal 5 min before PPE 100 μg/site
[8] = 100 μg/site intratracheal 5 min before PPE 100 μg/site
[9] = read-out: IC50 Porcine pancreas elastase

SMILES: CC(C)C(NC(=O)[C@@H]1CCCN1C(=O)[C@@H](NC(=O)c1ccc(C(=O)NCC(=O)O)cc1)C(C)C)C(=O)C(F)(F)F (mixture of isomers) [Example 19, 3(RS)-[[4-(carboxymethylaminocarbonyl)phenylcarbonyl]-L-valyl-L-prolyl]amino-1,1,1-trifluoro-4-methyl-2-oxopentane]
- pIC50 [1]: 6.17
- pIC50 ([2]; IC50 Porcine pancreas elastase): 5.52
- % inhibition of elastase-induced lung hemorrhage ([3]; 1 μg/site intratracheal): 10.8%
- Hemorrhage (OD541 nm) ([3]; 1 μg/site intratracheal): 11.59 ± 1.40 OD541 nm
- % inhibition of elastase-induced lung hemorrhage ([3]; 10 μg/site intratracheal): 93.1%
- Hemorrhage (OD541 nm) ([3]; 10 μg/site intratracheal): 1.663 ± 0.690 OD541 nm
- % inhibition of elastase-induced lung hemorrhage ([3]; 100 μg/site intratracheal): 105.2%
- Hemorrhage (OD541 nm) ([3]; 100 μg/site intratracheal): 0.2141 ± 0.020 OD541 nm
- ED50 elastase-induced lung hemorrhage [3]: 2.4 μg/site
- % Inhibition of paw edema ([4]; 1 mg/kg subcutaneous): 6.4%
- Thickness of footpad ([4]; 1 mg/kg subcutaneous): 43.8 ± 5.67 × 10^-2 mm
- % Inhibition of paw edema ([4]; 10 mg/kg subcutaneous): 20.9%
- Thickness of footpad ([4]; 10 mg/kg subcutaneous): 37.0 ± 13.41 × 10^-2 mm
- % Inhibition of paw edema ([4]; 100 mg/kg subcutaneous): 42.3%
- Thickness of footpad ([4]; 100 mg/kg subcutaneous): 27.0 ± 4.66 × 10^-2 mm
- Cst (%) Inhibition ([5]; 1 μg/site intratracheal): 15%
- VC (%) Inhibition ([5]; 1 μg/site intratracheal): 12%
- Cst (quasi static lung compliance) [5, 6]: 1.39 ± 0.05 ml/cmH2 O
- VC (vital capacity) [5, 6]: 7.0 ± 0.1 mL
- Cst (%) Inhibition ([5]; 10 μg/site intratracheal): 84%
- VC (%) Inhibition ([5]; 10 μg/site intratracheal): 65%
- Cst (quasi static lung compliance) [5, 7]: 0.70 ± 0.04 ml/cmH2 O
- VC (vital capacity) [5, 7]: 5.8 ± 0.1 mL
- Cst (%) Inhibition ([5]; 100 μg/site intratracheal): 100%
- VC (%) Inhibition ([5]; 100 μg/site intratracheal): 97%
- Cst (quasi static lung compliance) [5, 8]: 0.53 ± 0.02 ml/cmH2 O
- VC (vital capacity) [5, 8]: 5.0 ± 0.1 mL
- Potency compared with prior art compounds, considering Cst and VC values (in words) ([5]; hamster, in vivo): superior to the prior art compounds A and B
- Effect of pretreatment on PPE-induced increases in lung mechanics (in words) ([5]; intratracheal pretreatment, 1-100 μg/site): prevented the development of PPE-induced increases in lung mechanics in a dose dependent manner

SMILES: CC(C)C(NC(=O)[C@@H]1CCCN1C(=O)[C@@H](NC(=O)c1ccc(C(=O)NCCCC(=O)O)cc1)C(C)C)C(=O)C(F)(F)F (mixture of isomers) [Example 20, 3(RS)-[[4-[(3-carboxypropyl)aminocarbonyl]phenylcarbonyl]-L-valyl-L-prolyl]amino-1,1,1-trifluoro-4-methyl-2-oxopentane]
- pIC50 [1]: 6.05
- pIC50 [2, 9]: 5.62
- % inhibition of elastase-induced lung hemorrhage ([3]; 1 μg/site intratracheal): 16.1%
- Hemorrhage (OD541 nm) ([3]; 1 μg/site intratracheal): 10.94 ± 1.35 OD541 nm
- % inhibition of elastase-induced lung hemorrhage ([3]; 10 μg/site intratracheal): 86.0%
- Hemorrhage (OD541 nm) ([3]; 10 μg/site intratracheal): 2.522 ± 0.803 OD541 nm
- % inhibition of elastase-induced lung hemorrhage ([3]; 100 μg/site intratracheal): 104.7%
- Hemorrhage (OD541 nm) ([3]; 100 μg/site intratracheal): 0.2680 ± 0.050 OD541 nm
- ED50 elastase-induced lung hemorrhage [3]: 2.5 μg/site

SMILES: CC(C)C(NC(=O)[C@@H]1CCCN1C(=O)[C@@H](NC(=O)c1ccc(C(=O)NCCN2CCOCC2)cc1)C(C)C)C(=O)C(F)(F)F.Cl (mixture of isomers) [Example 21, 3(RS)-[[4-[[2-(4-morpholino)ethyl]aminocarbonyl]phenylcarbonyl]-L-valyl-L-prolyl]amino-1,1,1-trifluoro-4-methyl-2-oxopentane hydrochloride]
- pIC50 [1]: 5.92
- pIC50 [2, 9]: 5.43
- % inhibition of elastase-induced lung hemorrhage ([3]; 1 μg/site intratracheal): 13.6%
- Hemorrhage (OD541 nm) ([3]; 1 μg/site intratracheal): 12.76 ± 1.11 OD541 nm
- % inhibition of elastase-induced lung hemorrhage ([3]; 10 μg/site intratracheal): 66.3%
- Hemorrhage (OD541 nm) ([3]; 10 μg/site intratracheal): 5.372 ± 2.06 OD541 nm
- % inhibition of elastase-induced lung hemorrhage ([3]; 100 μg/site intratracheal): 100.0%
- Hemorrhage (OD541 nm) ([3]; 100 μg/site intratracheal): 0.6476 ± 0.129 OD541 nm
- ED50 elastase-induced lung hemorrhage [3]: 4.5 μg/site

Second part, led by results:

- pIC50 [1]: 5.62
- pIC50 [2, 9]: 4.80
SMILES: CC(C)C(NC(=O)CN(C(=O)[C@@H](NC(=O)c1ccc(C(=O)NCC(=O)O)cc1)C(C)C)C1Cc2ccccc2C1)C(=O)C(F)(F)F (mixture of isomers) [Example 27, 3(RS)-[[4-(carboxymethylaminocarbonyl)phenylcarbonyl]-L-valyl-N-(2-indanyl)glycyl]-amino-1,1,1-trifluoro-4-methyl-2-oxopentane]
- % inhibition of elastase-induced lung hemorrhage ([3]; 1 μg/site intratracheal): 24.8%
- Hemorrhage (OD541 nm) ([3]; 1 μg/site intratracheal): 10.68 ± 1.25 OD541 nm
- % inhibition of elastase-induced lung hemorrhage ([3]; 10 μg/site intratracheal): 66.9%
- Hemorrhage (OD541 nm) ([3]; 10 μg/site intratracheal): 4.878 ± 0.917 OD541 nm
- % inhibition of elastase-induced lung hemorrhage ([3]; 100 μg/site intratracheal): 99.8%
- Hemorrhage (OD541 nm) ([3]; 100 μg/site intratracheal): 0.3451 ± 0.084 OD541 nm
- ED50 elastase-induced lung hemorrhage [3]: 3.7 μg/site

- pIC50 [1]: 5.62
- pIC50 [2, 9]: 4.72
SMILES: CC(C)C(NC(=O)CN(C(=O)[C@@H](NC(=O)c1ccc(C(=O)NCCN2CCOCC2)cc1)C(C)C)C1Cc2ccccc2C1)C(=O)C(F)(F)F (mixture of isomers) [Example 29, 3(RS)-[[4-[[2-(4-morpholino)ethyl]aminocarbonyl]phenylcarbonyl]-L-valyl-N-(2-indanyl)glycyl]amino-1,1,1-trifluoro-4-methyl-2-oxopentane]
- % inhibition of elastase-induced lung hemorrhage ([3]; 1 μg/site intratracheal): 14.9%
- Hemorrhage (OD541 nm) ([3]; 1 μg/site intratracheal): 12.05 ± 1.95 OD541 nm
- % inhibition of elastase-induced lung hemorrhage ([3]; 10 μg/site intratracheal): 43.2%
- Hemorrhage (OD541 nm) ([3]; 10 μg/site intratracheal): 8.155 ± 1.76 OD541 nm
- % inhibition of elastase-induced lung hemorrhage ([3]; 100 μg/site intratracheal): 69.4%
- Hemorrhage (OD541 nm) ([3]; 100 μg/site intratracheal): 4.545 ± 1.49 OD541 nm
- ED50 elastase-induced lung hemorrhage [3]: 17.9 μg/site
